Source: patent US7507716B2, “Method for treating pain with prolactin antagonists” (Board of Regents, The University of Texas System, priority 2005, dated 2009)

System: gene expression in trigeminal ganglia
Test: Affymetrix microarray of trigeminal ganglia RNA after estradiol administration
Type: in vivo, rat
Conditions: OVX rats, estradiol 80 μg/kg/10 days versus vehicle
Description: At the end of the 10th day, animals were used for behavioral experiments or sacrificed by decapitation and the TG of each individual animal were harvested. Harvested tissue was used for RNA isolation, total protein isolation, or for preparing primary cultures of TG neurons.
The ground tissue was used to isolate total RNA by the guanidinium thiocyanate method as described previously (Chomczynski and Sacchi, 1987). The isolated RNA was then treated with a DNA-free reagent (DNAse I; Ambion, Austin, Tex.) and submitted to the Microarray Core Facility at the University of Texas Health Science Center at San Antonio. Additional RNA sample aliquots were used as template for the quantitative real time RT-PCR experiments.
Microarray analysis: Target preparation, hybridization, staining, scanning and analysis of image: RNA samples derived from TG of OVX rats treated with a single dose (80 μg/kg per day) of E2 or vehicle (n=5 for each group) were prepared for hybridization to Affymetrix (Santa Clara, Calif.) RG-U34A arrays according to the manufacturer's instructions. Total RNA was used as a template for double-stranded cDNA synthesis (Superscript Double-Stranded cDNA Synthesis kit, Invitrogen, Carlsbad, Calif.), which was used as a template for biotin-labeled cRNA synthesis (Enzo BioArray High Yield RNA Transcription Labeling Kit, Affymetrix). Purified (RNeasy kit, Qiagen, Valencia, Calif.) labeled-cRNA was hybridized to the rat genomic RG-U34A GeneChips for 16 h at 45° C. Following hybridization, the probe arrays were washed and stained using the GeneChip Fluidics station protocol EukGE-ES2. The intensity of bound dye was measured with an argon laser confocal scanner (GeneArray Scanner, Agilent, Palo Alto, Calif.). The probe arrays were scanned twice and the stored images were aligned and analyzed using the GeneClip software Micro array Analysis Suite (MAS) 5.0 (Affymetrix, Santa Clara, Calif.). Data were imported into the GeneSpring 5.1 software (Silicon Genetics, Redwood City, Calif.) and a list of genes of relative expression of ≧1.5 and ≧0.5 fold was obtained. The data were imported into the R software package and the probe level data were converted to expression measures using the Affy package (Bolstad et al., 2003) from Bioconductor. Expression values for each mRNA were obtained by the Robust Multi-array Analysis (RMA) method as described elsewhere (Boistad et al., 2003).

## C[C@]12CC[C@@H]3c4ccc(O)cc4CC[C@H]3[C@@H]1CC[C@@H]2O [estradiol, 17-β-estradiol]
Probe set AA958274_at
  Trk A 3′ mRNA sequence expression, GS (change cut-off): ≧1.5
  Trk A 3′ mRNA sequence expression, SAM: 1.5
Probe set AB002393_at
  Histidine ammonia lyase expression, GS (change cut-off): ≧1.5
  Histidine ammonia lyase expression, SAM: 1.5
Probe set AF050662UTR#1_at
  Ania-10 early gene mRNA, 3′ UTR expression, GS (change cut-off): ≧1.5
  Ania-10 early gene mRNA, 3′ UTR expression, SAM: 1.6
Probe set AF050664UTR#1_at
  Ania-12 early gene mRNA, 3′ UTR expression, GS (change cut-off): ≧1.5
  Ania-12 early gene mRNA, 3′ UTR expression, SAM: 1.5
Probe set AF087674_at
  Insulin receptor substrate 2 (IRS-2) mRNA expression, GS (change cut-off): ≧1.5
  Insulin receptor substrate 2 (IRS-2) mRNA expression, SAM: 1.4
Probe set D00403_g_at
  Interleukin 1 alpha expression, GS (change cut-off): ≧1.5
Probe set D00403_g_at, false positive by RT-PCR
  Interleukin 1 alpha expression, SAM: 1.3
Probe set D14097cds_s_at
  Aldosterone synthase, exon 9 expression, GS (change cut-off): ≧1.5
  Aldosterone synthase, exon 9 expression, SAM: 1.5
Probe set D38381_s_at
  Cytochrome P450, 3a18 expression, GS (change cut-off): ≧1.5
  Cytochrome P450, 3a18 expression, SAM: 1.3
Probe set D49494cds_s_at
  Prepro bone inducing protein expression, GS (change cut-off): ≧1.5
  Prepro bone inducing protein expression, SAM: 1.3
Probe set E03166cds_s_at
  Prolactin expression, GS (change cut-off): ≧1.5
  Prolactin expression, SAM: 6.9
Probe set M25801_g_at
  Nuclear receptor subfamily 1, Group D, member 1 expression, GS (change cut-off): ≧1.5
  Nuclear receptor subfamily 1, Group D, member 1 expression, SAM: 1.5
Probe set M31809_at
  Protein phosphatase 3, catalytic subunit, beta isoform expression, GS (change cut-off): ≦1.5
  Protein phosphatase 3, catalytic subunit, beta isoform expression, SAM: 0.6
Probe set Rc_AA894174_at
  Electron transf. flavoprotein (Etfa), mRNA expression, GS (change cut-off): ≦1.5
  Electron transf. flavoprotein (Etfa), mRNA expression, SAM: 0.7
Probe set S69383_at
  Arachidonate 12-lipoxygenase expression, GS (change cut-off): ≦1.5
  Arachidonate 12-lipoxygenase expression, SAM: 0.5
Probe set V01244_at
  Prolactin expression, GS (change cut-off): ≧1.5
  Prolactin expression, SAM: 12.8
Probe set V01250cds_s_at
  Prolactin expression, GS (change cut-off): ≧1.5
  Prolactin expression, SAM: 3
Probe set X54419cds_at
  Interleukin 5 (colony-stimulating factor, eosinophil) expression, GS (change cut-off): ≧1.5
  Interleukin 5 (colony-stimulating factor, eosinophil) expression, SAM: 1.3
Probe set X60328_at
  Cytosolic epoxide hydrolase expression, GS (change cut-off): ≧1.5
  Cytosolic epoxide hydrolase expression, SAM: 1.7
Probe set rc_AA859966_i_at
  Similar to M. musculus pre 45S pre rRNA gene expression, GS (change cut-off): ≧1.5
  Similar to M. musculus pre 45S pre rRNA gene expression, SAM: 4.1
Probe set rc_AA945571_sat
  Cytochrome P450, subfamily IIC6 expression, GS (change cut-off): ≧1.5
  Cytochrome P450, subfamily IIC6 expression, SAM: 1.7
